One test relates to HEK293FT cells. The test is described as follows: Survival assay (MTT), HEK293FT. The class given is cell-based. As to conditions: Homo sapiens. Here is the method: (§1) Cells were passed between 70 and 90% confluence.
(§2) Cells were incubated with the drugs for 72 hours.
The present inventors further investigated the extent to which these compounds kill normal human cells; low cytotoxicity against normal human cells is advantageous property for anti-cancer agents. The cytotoxicity of these compounds in various normal human cell lines was therefore investigated (Table 3). Cells were grown and the survival assay was performed as described above (Materials and Methods).

Another test has as its system HL-60 cells. The test is described as follows: Survival assay (MTT), HL-60. Conditions: Homo sapiens. The class given is cell-based, human. Here is the method:
as §1, §2

Another test relates to A549 cells. Kind of test: Survival assay (MTT), A549. Conditions: Homo sapiens. The class given is cell-based, human. On the procedure:
as §1, §2

For a further test, the system named is G26 cells. The test is described as follows: Survival assay (MTT), G26. Conditions: Homo sapiens, G26, Glioma, Grade IV, 72 hours. The test is classed as cell-based, human. Here is the method:
as §1, §2

The next test has as its system A-498 cells. Kind of test: Survival assay (MTT), A-498. The class given is cell-based, human. As to conditions: Homo sapiens. On the procedure:
as §1, §2

Another test deals with SK-OV-3 cells. The test is described as follows: Survival assay (MTT), SK-OV-3. The class given is cell-based, human. Conditions: Homo sapiens. On the procedure:
as §1, §2

Test [1] relates to Glioma, Grade IV cell lines. Kind of test: Survival assay, panel of 12 patient derived Glioma, Grade IV cell lines. The class given is cell-based, human. Conditions: of 12 cell lines of Table 2. Here is the method: Primary glioma neural stem (GNS) cells (G7, G14, G144, G166) were cultured on poly-D-lysine (Merck Millipore, Cat. Nr. A-003-E) and laminin (R&D Systems, Cat.Nr. 3446-005-01) coated plates in neural stem cell medium (50% DMEM-F12 (Thermofisher, Cat. Nr. 21041025), 50% neurobasal medium (Thermofisher, Cat. Nr. 10888-022), N2 (Life Technologies, Cat. Nr. A-003-E) and B27 supplements (Life Technologies, Cat.Nr. 12587010), 1 mM sodium pyruvate (Life Technologies, Cat.Nr. 11360-039), 2 mM glutamax (Life Technologies, Cat. Nr. 35050038), 1 mM HEPES (Fisher Scientific, Cat. Nr. BP299-1), 0.1 mM β-mercaptoethanol (Life Technologies, Cat. Nr. 31350010), 1× nonessential amino acids (Life Technologies, Cat. Nr. 11140-035), 0.006% bovine serum albumin (Sigma, Cat. Nr. A8577-10ML), 4 μg/ml heparin (Sigma, Cat. Nr. H3149-25KU), 100 U/ml penicillin, 100 μg/ml streptomycin, 20 ng/ml hEGF (R&D Systems, Cat. Nr. 236-EG-200), 10 ng/ml bFGF (Peprotech, Cat. Nr. 100-18B).
as §1, §2
Due to lack of activity in previous assays, 5-carboxyl-2′-deoxycytidine was not included in this more rigorous analysis.

Another test concerns U3013 cells. The test is described as follows: Survival assay (MTT), U3013. The test is classed as cell-based, human. As to conditions: Homo sapiens, U3013, Glioma, Grade IV, 72 hours. Here is the method:
as §1, §2

Setting [2] is: HEK293, Tables 6 and 7, unit inferred.
Where [3] appears, read: HL-60, Acute Promyelocytic Leukemia, 72 hours, MTT.
The mark [4] stands for this setting: HL-60, Tables 6 and 7, unit inferred.
Where [5] appears, read: A549, 72 h, A549, Lung Carcinoma, 72 hours, MTT.
The mark [6] stands for this setting: A549, A549, Tables 6 and 7, unit inferred.
[7] abbreviates: A498, 72 h, A-498, Kidney Carcinoma, 72 hours, MTT.
Setting [8] is: A498, A-498, Tables 6 and 7, unit inferred.
Where [9] appears, read: SK-OV-3, Ovarian Adenocarcinoma, 72 hours, MTT.
The mark [10] stands for this setting: SK-OV-3, Tables 6 and 7, unit inferred.

These results are taken from US12605397B2, “Deoxy-cytidine or uridine derivatives for use in cancer therapies” (HEMISPHERIAN AS, priority 2019, dated 2026).

A value given as a limit tells only on which side of the number the result lay.

A word on the IC50: it is the concentration at which inhibition is half-maximal. Higher therefore signals weaker potency in that assay.

On to `Nc1nc(=O)n([C@H]2C[C@H](O)[C@@H](CO)O2)cc1C=O` [2d5fC, 5-formyl-2′-deoxycytidine], for which the IC50 with HEK293FT cells (72 h, Normal, Kidney, MTT) is more than 25 µM; in the test on HEK293FT cells (setting [2]), not below 25 µM; with HL-60 cells (setting [3]) it was 6.26 µM; with HL-60 cells (setting [4]) it was 6.26 µM; in the test with A549 cells (setting [5]), more than 25 µM; in the test on A549 cells (setting [6]) it was not below 25 µM. Further, the IC50 was 28.1 µM in the test on G26 cells; more than 25 µM in the test with A-498 cells (setting [7]); not below 25 µM with A-498 cells (setting [8]); 9.69 µM in the test on SK-OV-3 cells (setting [9]); 9.69 µM in the test on SK-OV-3 cells (setting [10]); more than 100 µM with U3013 cells. Besides, the “number of Glioma, Grade IV cell lines killed” value (“number of Glioma” below) in test [1] is on record as 5 of 12.
On to `Nc1nc(=O)n([C@H]2C[C@H](O)[C@@H](CO)O2)cc1CO` [2d5hmC, 5-hydroxymethyl-2′-deoxycytidine], for which the IC50 in the test with HEK293FT cells (72 h, Normal, Kidney, MTT) is more than 25 µM; in the test with HEK293FT cells (setting [2]) it was not below 25 µM; in the test on HL-60 cells (setting [3]) it was more than 25 µM; with HL-60 cells (setting [4]), not below 25 µM; with A549 cells (setting [5]) it was more than 25 µM; with A549 cells (setting [6]), not below 25 µM. Also, the IC50 in the test on G26 cells is more than 100 µM; with A-498 cells (setting [7]), more than 25 µM; in the test on A-498 cells (setting [8]) it was not below 25 µM; in the test with SK-OV-3 cells (setting [9]) it was more than 25 µM; in the test with SK-OV-3 cells (setting [10]) it was not below 25 µM; with U3013 cells, more than 100 µM. For the same compound, the “number of Glioma” value in test [1] is recorded as 6 of 12.
For the compound `Cn1nnc2c(C(N)=O)ncn2c1=O` [Temozolomide, 4-methyl-5-oxo-2,3,4,6,8-pentazabicyclo[4.3.0]nona-2,7,9-triene-9-carboxamide, reference compound], the IC50 was more than 25 µM in the test on HEK293FT cells (72 h, Normal, Kidney, MTT); more than 25 µM with HL-60 cells (setting [3]); 1.02 µM with A549 cells (setting [5]); 7.34 µM in the test with G26 cells; more than 25 µM in the test with A-498 cells (setting [7]); more than 25 µM in the test with SK-OV-3 cells (setting [9]). The IC50 with U3013 cells was more than 100 µM. Moreover, the “number of Glioma” value in test [1] is given as 5 of 12.
